Experimental data: the NIST ThermoML archive (doi:10.1016/j.fluid.2006.01.022)

How the values were obtained:
[1] = xn = mol fraction of the nth substance listed; conditions: Liquid, Alternating current cell with electrodes
[2] = 101.33 kPa, Liquid, Alternating current cell with electrodes

[Br][Al]([Br])[Br] [aluminum bromide] + CCn1cc[n+](C)c1.[Br-]
electrical conductivity [S/m], [1]
Conditions | x1 = 0.3 | x1 = 0.6
258.1 K | 0.048 | 0.0432
263.1 K | 0.0898 | 0.0717
268.1 K | 0.122 | 0.113
273.1 K | 0.22 | 0.16
278.1 K | 0.284 | 0.226
283.1 K | 0.454 | 0.338
288.1 K | 0.599 | 0.447
293.1 K | 0.784 | 0.645
298.1 K | 0.979 | 0.877
303.1 K | 1.21 | 1.14
308.1 K | 1.49 | 1.42
313.1 K | 1.82 | 1.75
318.1 K | 2.14 | 2.11
323.1 K | 2.54 | 2.56
328.1 K | 3.05 | 3.04
333.1 K | 3.5 | 3.62
338.1 K | 4.05 | 4.22
343.1 K | 4.6 | 4.87
348.1 K | 5.14 | 5.56
353.1 K | 5.79 | 6.35
358.1 K | 6.95 | 7.16
363.1 K | 7.62 | 7.79
368.1 K | 8.28 | 8.57
373.1 K | 8.95 | 9.46
378.1 K | 9.7 | 10.4
383.1 K | 10.6 | 11.4
388.1 K | 11.4 | 12.3
393.1 K | 12 | 12.8
398.1 K | – | 13.7
403.1 K | – | 14.5
408.1 K | – | 15.3
413.1 K | – | 15.8
418.1 K | – | 16.5

CCn1cc[n+](C)c1.F[B-](F)(F)F [1-ethyl-3-methylimidazolium tetrafluoroborate]
[2]
Conditions | electrical conductivity [S/m]
258.1 K | 0.245
263.1 K | 0.296
268.1 K | 0.445
273.1 K | 0.612
278.1 K | 0.735
283.1 K | 0.896
288.1 K | 1.09
293.1 K | 1.3
298.1 K | 1.57
303.1 K | 1.79
308.1 K | 2.02
313.1 K | 2.28
318.1 K | 2.55
323.1 K | 2.85
328.1 K | 3.22
333.1 K | 3.56
338.1 K | 3.95
343.1 K | 4.35
348.1 K | 4.77
353.1 K | 5.22
358.1 K | 5.55
363.1 K | 5.95
368.1 K | 6.46
373.1 K | 6.9
378.1 K | 7.36
383.1 K | 7.83
388.1 K | 8.32
393.1 K | 8.77
398.1 K | 9.29
403.1 K | 9.79
408.1 K | 10.3
413.1 K | 10.8
418.1 K | 11.3
423.1 K | 11.8
428.1 K | 12.3
433.1 K | 12.7

CCOS(=O)(=O)[O-].CCn1cc[n+](C)c1 [1-ethyl-3-methylimidazolium ethyl sulfate]
[2]
Conditions | electrical conductivity [S/m]
258.1 K | 0.0286
263.1 K | 0.0374
268.1 K | 0.0495
273.1 K | 0.0727
278.1 K | 0.105
283.1 K | 0.139
288.1 K | 0.202
293.1 K | 0.291
298.1 K | 0.382
303.1 K | 0.485
308.1 K | 0.606
313.1 K | 0.724
318.1 K | 0.861
323.1 K | 1.01
328.1 K | 1.18
333.1 K | 1.35
338.1 K | 1.54
343.1 K | 1.75
348.1 K | 1.95
353.1 K | 2.18
358.1 K | 2.41
363.1 K | 2.68
368.1 K | 3
373.1 K | 3.29
378.1 K | 3.57
383.1 K | 3.86
388.1 K | 4.15
393.1 K | 4.47
398.1 K | 4.77
403.1 K | 5.09
408.1 K | 5.39
413.1 K | 5.68
418.1 K | 6
423.1 K | 6.29
428.1 K | 6.58
433.1 K | 6.86

[Cl][Al]([Cl])[Cl] [aluminum chloride] + CCn1cc[n+](C)c1.[Cl-]
electrical conductivity [S/m], [1]
Conditions | x1 = 0.33 | x1 = 0.6
253.1 K | 0.0315 | 0.0377
258.1 K | 0.0515 | 0.0517
263.1 K | 0.0855 | 0.1
268.1 K | 0.127 | 0.143
273.1 K | 0.195 | 0.206
278.1 K | 0.3 | 0.283
283.1 K | 0.39 | 0.385
288.1 K | 0.53 | 0.515
293.1 K | 0.705 | 0.669
298.1 K | 0.907 | 0.861
303.1 K | 1.11 | 1.08
308.1 K | 1.37 | 1.32
313.1 K | 1.67 | 1.6
318.1 K | 2.02 | 1.91
323.1 K | 2.4 | 2.26
328.1 K | 2.81 | 2.64
333.1 K | 3.29 | 3.11
338.1 K | 3.8 | 3.56
343.1 K | 4.34 | 4.02
348.1 K | 4.9 | 4.56
353.1 K | 5.68 | 5.08
358.1 K | 6.27 | 5.63
363.1 K | 7.13 | 6.17
368.1 K | 7.95 | 7.28
373.1 K | 8.5 | 8.09
378.1 K | 9.11 | 9.1
383.1 K | 9.97 | 9.72
388.1 K | 10.9 | 10.1
393.1 K | 11.8 | 10.4
398.1 K | 12.3 | –
403.1 K | 12.7 | –
